From paper PMC12749166, “Fragment-based drug design of a bacterial kinase inhibitor capable of increasing the antibiotic sensitivity of clinical isolates” (Communications Chemistry, 2025)

Assays:
S. aureus C0032 = test: Checkerboard assay of 83 with kanamycin A; assay type: cell-based; details: for MIC of kanamycin A: 0.125 µg mL^−1 imipenem, 18 h at 37 °C; for checkerboard well reading (growth): Supp. Figure 3 C
APH(2”)-IVa = APH(2”)-IVa (Enterococcus casseliflavus, UniProt O68183); test: biochemical
APH(3’)-IIb = target: T1, APH(3’)-IIb (Pseudomonas aeruginosa, UniProt Q9HWR2, M95L); test: Isothermal Titration Calorimetry; assay type: binding, P. aeruginosa
T1 sequence (Q9HWR2 1-268 M95L): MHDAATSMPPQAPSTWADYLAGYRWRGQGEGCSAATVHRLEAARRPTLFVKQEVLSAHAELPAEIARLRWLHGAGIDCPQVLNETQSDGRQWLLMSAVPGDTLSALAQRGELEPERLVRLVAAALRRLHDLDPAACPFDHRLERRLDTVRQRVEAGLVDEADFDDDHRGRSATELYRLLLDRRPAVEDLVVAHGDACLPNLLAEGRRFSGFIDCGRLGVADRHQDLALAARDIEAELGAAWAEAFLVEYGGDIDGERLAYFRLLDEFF
Procedure: ITC experiments were performed on three different machines: a MicroCal VP-ITC (GE Healthcare), a MicroCal PEAQ-ITC (Malvern), or a MicroCal iTC200 (Malvern). The architecture and principles are similar for the three different systems. The experiments were carried out in Buffer HEPES at 25 °C. Titrations consisted of twenty injections of 1.5 µL inhibitors, every 120 seconds, into the measuring cell using the injection syringe rotating at 750 rpm. The data were analyzed using the MicroCal PEAQ-ITC software (v. 1.52, Malvern) using the single-site binding model to fit the raw data. The standard error of the Kd value was determined from measurements made on distinct samples (n indicated in the text).

Chain of APH(2”)-IVa (O68183 1-301): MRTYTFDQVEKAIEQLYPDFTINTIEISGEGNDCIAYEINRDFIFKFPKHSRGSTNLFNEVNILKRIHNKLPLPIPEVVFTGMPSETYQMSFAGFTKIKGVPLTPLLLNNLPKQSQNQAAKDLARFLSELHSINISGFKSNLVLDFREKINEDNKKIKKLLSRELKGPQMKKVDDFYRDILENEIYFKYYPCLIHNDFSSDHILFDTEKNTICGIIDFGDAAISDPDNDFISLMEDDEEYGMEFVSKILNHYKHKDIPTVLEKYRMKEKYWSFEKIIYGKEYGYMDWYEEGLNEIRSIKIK

SMILES: Clc1cnc2[nH]ccc2c1-c1ccn[nH]1 [Compound 83]
- MIC of kanamycin A (S. aureus C0032; [83] 2 µg mL^−1): 4096 µg/mL
- MIC of kanamycin A (S. aureus C0032; [83] 4 µg mL^−1): 4096 µg/mL
- MIC of kanamycin A (S. aureus C0032; [83] 8 µg mL^−1): 4096 µg/mL
- MIC of kanamycin A (S. aureus C0032; [83] 16 µg mL^−1): 4096 µg/mL
- MIC of kanamycin A (S. aureus C0032; [83] 32 µg mL^−1): 2048 µg/mL
- MIC of kanamycin A (S. aureus C0032; [83] 64 µg mL^−1): 2048 µg/mL
- MIC of kanamycin A (S. aureus C0032; [83] 128 µg mL^−1): 2048 µg/mL
- checkerboard well reading (growth) (S. aureus C0032; 83 1 µg.mL-1, kanamycin A 0 µg.mL-1): 0.496
- checkerboard well reading (growth) (S. aureus C0032; 83 1 µg.mL-1, kanamycin A 2 µg.mL-1): 0.320
- checkerboard well reading (growth) (S. aureus C0032; 83 1 µg.mL-1, kanamycin A 4 µg.mL-1): 0.317
- checkerboard well reading (growth) (S. aureus C0032; 83 1 µg.mL-1, kanamycin A 8 µg.mL-1): 0.300
- checkerboard well reading (growth) (S. aureus C0032; 83 1 µg.mL-1, kanamycin A 16 µg.mL-1): 0.287
- checkerboard well reading (growth) (S. aureus C0032; 83 1 µg.mL-1, kanamycin A 32 µg.mL-1): 0.279
- checkerboard well reading (growth) (S. aureus C0032; 83 1 µg.mL-1, kanamycin A 64 µg.mL-1): 0.255
- checkerboard well reading (growth) (S. aureus C0032; 83 1 µg.mL-1, kanamycin A 128 µg.mL-1): 0.294
- checkerboard well reading (growth) (S. aureus C0032; 83 2 µg.mL-1, kanamycin A 0 µg.mL-1): 0.442
- checkerboard well reading (growth) (S. aureus C0032; 83 2 µg.mL-1, kanamycin A 2 µg.mL-1): 0.315
- checkerboard well reading (growth) (S. aureus C0032; 83 2 µg.mL-1, kanamycin A 4 µg.mL-1): 0.311
- checkerboard well reading (growth) (S. aureus C0032; 83 2 µg.mL-1, kanamycin A 8 µg.mL-1): 0.299
- checkerboard well reading (growth) (S. aureus C0032; 83 2 µg.mL-1, kanamycin A 16 µg.mL-1): 0.295
- checkerboard well reading (growth) (S. aureus C0032; 83 2 µg.mL-1, kanamycin A 32 µg.mL-1): 0.268
- checkerboard well reading (growth) (S. aureus C0032; 83 2 µg.mL-1, kanamycin A 64 µg.mL-1): 0.246
- checkerboard well reading (growth) (S. aureus C0032; 83 2 µg.mL-1, kanamycin A 128 µg.mL-1): 0.245
- checkerboard well reading (growth) (S. aureus C0032; 83 4 µg.mL-1, kanamycin A 0 µg.mL-1): 0.451
- checkerboard well reading (growth) (S. aureus C0032; 83 4 µg.mL-1, kanamycin A 2 µg.mL-1): 0.356
- checkerboard well reading (growth) (S. aureus C0032; 83 4 µg.mL-1, kanamycin A 4 µg.mL-1): 0.318
- checkerboard well reading (growth) (S. aureus C0032; 83 4 µg.mL-1, kanamycin A 8 µg.mL-1): 0.313
- checkerboard well reading (growth) (S. aureus C0032; 83 4 µg.mL-1, kanamycin A 16 µg.mL-1): 0.286
- checkerboard well reading (growth) (S. aureus C0032; 83 4 µg.mL-1, kanamycin A 32 µg.mL-1): 0.267
- checkerboard well reading (growth) (S. aureus C0032; 83 4 µg.mL-1, kanamycin A 64 µg.mL-1): 0.243
- checkerboard well reading (growth) (S. aureus C0032; 83 4 µg.mL-1, kanamycin A 128 µg.mL-1): 0.258
- checkerboard well reading (growth) (S. aureus C0032; 83 8 µg.mL-1, kanamycin A 0 µg.mL-1): 0.402
- checkerboard well reading (growth) (S. aureus C0032; 83 8 µg.mL-1, kanamycin A 2 µg.mL-1): 0.304
- checkerboard well reading (growth) (S. aureus C0032; 83 8 µg.mL-1, kanamycin A 4 µg.mL-1): 0.300
- checkerboard well reading (growth) (S. aureus C0032; 83 8 µg.mL-1, kanamycin A 8 µg.mL-1): 0.292
- checkerboard well reading (growth) (S. aureus C0032; 83 8 µg.mL-1, kanamycin A 16 µg.mL-1): 0.282
- checkerboard well reading (growth) (S. aureus C0032; 83 8 µg.mL-1, kanamycin A 32 µg.mL-1): 0.271
- checkerboard well reading (growth) (S. aureus C0032; 83 8 µg.mL-1, kanamycin A 64 µg.mL-1): 0.244
- checkerboard well reading (growth) (S. aureus C0032; 83 8 µg.mL-1, kanamycin A 128 µg.mL-1): 0.258
- checkerboard well reading (growth) (S. aureus C0032; 83 16 µg.mL-1, kanamycin A 0 µg.mL-1): 0.581
- checkerboard well reading (growth) (S. aureus C0032; 83 16 µg.mL-1, kanamycin A 2 µg.mL-1): 0.303
- checkerboard well reading (growth) (S. aureus C0032; 83 16 µg.mL-1, kanamycin A 4 µg.mL-1): 0.295
- checkerboard well reading (growth) (S. aureus C0032; 83 16 µg.mL-1, kanamycin A 8 µg.mL-1): 0.293
- checkerboard well reading (growth) (S. aureus C0032; 83 16 µg.mL-1, kanamycin A 16 µg.mL-1): 0.274
- checkerboard well reading (growth) (S. aureus C0032; 83 16 µg.mL-1, kanamycin A 32 µg.mL-1): 0.258
- checkerboard well reading (growth) (S. aureus C0032; 83 16 µg.mL-1, kanamycin A 64 µg.mL-1): 0.242
- checkerboard well reading (growth) (S. aureus C0032; 83 16 µg.mL-1, kanamycin A 128 µg.mL-1): 0.200
- checkerboard well reading (growth) (S. aureus C0032; 83 32 µg.mL-1, kanamycin A 0 µg.mL-1): 0.378
- checkerboard well reading (growth) (S. aureus C0032; 83 32 µg.mL-1, kanamycin A 2 µg.mL-1): 0.299
- checkerboard well reading (growth) (S. aureus C0032; 83 32 µg.mL-1, kanamycin A 4 µg.mL-1): 0.294
- checkerboard well reading (growth) (S. aureus C0032; 83 32 µg.mL-1, kanamycin A 8 µg.mL-1): 0.273
- checkerboard well reading (growth) (S. aureus C0032; 83 32 µg.mL-1, kanamycin A 16 µg.mL-1): 0.281
- checkerboard well reading (growth) (S. aureus C0032; 83 32 µg.mL-1, kanamycin A 32 µg.mL-1): 0.249
- checkerboard well reading (growth) (S. aureus C0032; 83 32 µg.mL-1, kanamycin A 64 µg.mL-1): 0.215
- checkerboard well reading (growth) (S. aureus C0032; 83 32 µg.mL-1, kanamycin A 128 µg.mL-1): 0.082
- checkerboard well reading (growth) (S. aureus C0032; 83 64 µg.mL-1, kanamycin A 0 µg.mL-1): 0.357
- checkerboard well reading (growth) (S. aureus C0032; 83 64 µg.mL-1, kanamycin A 2 µg.mL-1): 0.295
- checkerboard well reading (growth) (S. aureus C0032; 83 64 µg.mL-1, kanamycin A 4 µg.mL-1): 0.275
- checkerboard well reading (growth) (S. aureus C0032; 83 64 µg.mL-1, kanamycin A 8 µg.mL-1): 0.274
- checkerboard well reading (growth) (S. aureus C0032; 83 64 µg.mL-1, kanamycin A 16 µg.mL-1): 0.256
- checkerboard well reading (growth) (S. aureus C0032; 83 64 µg.mL-1, kanamycin A 32 µg.mL-1): 0.227
- checkerboard well reading (growth) (S. aureus C0032; 83 64 µg.mL-1, kanamycin A 64 µg.mL-1): 0.165
- checkerboard well reading (growth) (S. aureus C0032; 83 64 µg.mL-1, kanamycin A 128 µg.mL-1): 0.053
- checkerboard well reading (growth) (S. aureus C0032; 83 128 µg.mL-1, kanamycin A 0 µg.mL-1): 0.433
- checkerboard well reading (growth) (S. aureus C0032; 83 128 µg.mL-1, kanamycin A 2 µg.mL-1): 0.365
- checkerboard well reading (growth) (S. aureus C0032; 83 128 µg.mL-1, kanamycin A 4 µg.mL-1): 0.303
- checkerboard well reading (growth) (S. aureus C0032; 83 128 µg.mL-1, kanamycin A 8 µg.mL-1): 0.296
- checkerboard well reading (growth) (S. aureus C0032; 83 128 µg.mL-1, kanamycin A 16 µg.mL-1): 0.283
- checkerboard well reading (growth) (S. aureus C0032; 83 128 µg.mL-1, kanamycin A 32 µg.mL-1): 0.276
- checkerboard well reading (growth) (S. aureus C0032; 83 128 µg.mL-1, kanamycin A 64 µg.mL-1): 0.204
- checkerboard well reading (growth) (S. aureus C0032; 83 128 µg.mL-1, kanamycin A 128 µg.mL-1): 0.066
- Impact of 83 alone on bacterial growth (S. aureus C0032; absence of antibiotics, 83 from 0 to 128 µg mL^−1 (585 µM)): no impact on bacterial growth
- inhibition at 100 µM (APH(2”)-IVa; 100 µM of 83): 95%
- Ki (APH(2”)-IVa; Ki (µM), inhibition constant, ATP-competitive, 0-2 mM MgATP, 100 µM kanamycin A, global fitting): 0.39 ± 0.04 µM
- Kd (APH(3’)-IIb): 0.27 ± 0.05 µM
- ΔH (APH(3’)-IIb; ITC): -13.6 kcal/mol
